Drawing on US20250134890A1, “ANTIMALARIAL HEXAHYDROPYRIMIDINE ANALOGUES” (UCB BIOPHARMA SRL, priority 2022, published 2025), this text covers IC50 for three molecules.

The structures appear in SMILES notation. Structures can show the parent of a compound that is named as a salt.

The experiment deals with Plasmodium falciparum: 3D7 strain. As to the kind of experiment: P. falciparum 3D7 asexual blood stage assay (SYBR green readout). It is filed as cell-based. Particulars: Plasmodium falciparum, 3D7, Erythrocyte, 72 h, P. falciparum 3D7 in human erythrocytes, 72 h incubation, SYBR green fluorescence. In outline:
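3D7-infected erythrocytes (5% haematocrit, 0.5% parasitaemia) were exposed 72 h at 37 °C under 1% O2/3% CO2 to a 20-point titration (50,000-15 nM final, 0.5% DMSO). Parasite DNA was read by SYBR green fluorescence after overnight lysis. Percent inhibition was set against mefloquine and DMSO, and EC50 came from a biphasic two-site fit.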
As to `C[C@H]1C[C@@H](N2C(=N)N[C@](C)(c3cccc(-c4ccc(F)cc4F)c3Cl)CC2=O)CCN1C` (relative stereo) [Example 106, (6S)-6-[2-Chloro-3-(2,4-difluoro-phenyl)phenyl]-3-[(2S*,4S*)-1,2-dimethylpiperidin-4-yl]-2-imino-6-methylhexahydropyrimidin-4-one hydrochloride], the half-maximal inhibitory concentration (IC50) worked out at 94 nM.
In turn, `C[C@@H]1C[C@H](N2C(=N)N[C@](C)(c3cccc(-c4cncc(Cl)c4)c3Cl)CC2=O)CC[C@@H]1O` (relative stereo) [Example 83, (6S)-6-[2-Chloro-3-(5-chloro-pyridin-3-yl)phenyl]-3-[(1R*,3R*,4S*)-4-hydroxy-3-methylcyclohexyl]-2-imino-6-methylhexahydropyrimidin-4-one hydrochloride] had an IC50 of 52 nM. Against the preceding molecule, the IC50 is about 1.8-fold lower.
In the case of `C[C@H]1C[C@@H](N2C(=N)N[C@](C)(c3cccc(-c4ccc(P(C)(C)=O)cc4F)c3Cl)CC2=O)CCC1(F)F` [Example 19, (6S)-6-[2-Chloro-3-(4-dimethyl-phosphoryl-2-fluorophenyl)-phenyl]-3-[(1S,3S)-4,4-difluoro-3-methylcyclohexyl]-2-imino-6-methylhexahydropyrimidin-4-one hydrochloride], the concentration for half-maximal inhibition (IC50) was determined as 386 nM.

What is called IC50 is the concentration that inhibits the measured activity by half.
